# Test system: P. falciparum PanK
# Experiment: [14C]pantothenate phosphorylation assay with P. falciparum lysate
# Assay type: biochemical, Plasmodium falciparum
# Conditions: 100 µM pantothenamide, 0.2 µM [14C]pantothenate, 10 min
# Description: To assess the effect of the pantothenamides on pantothenate phosphorylation by P. falciparum PanK, the phosphorylation of [^14C]pantothenate by P. falciparum lysates was measured in the presence and absence of a single concentration of each pantothenamide. P. falciparum lysate was prepared from trophozoite stage parasites “isolated” from their host erythrocyte by treatment with 0.05% (w/v) saponin (essentially as described by Saliba et al.), and washed (five times) in HEPES-buffered saline (125 mM NaCl, 5 mM KCl, 20 mM D-glucose, 25 mM HEPES, 1 mM MgCl2, pH 7.1). Lysates were prepared as described by van Schalkwyk et al., except that 10 mM potassium phosphate, pH 7.4 (rather than 10 mM Tris, pH 7.4), was used to lyse the cells. Aliquots of lysate were stored at −20°C. The concentration of cell lysates was determined from cell counts made using an improved Neubauer hemocytometer.
# [^14C]Pantothenate phosphorylation was assayed using the Somogyi reagent essentially as described by Saliba et al., except that pantothenate phosphorylation was terminated by heat denaturation (rather than acid denaturation) of the protein in reaction aliquots. Briefly, P. falciparum lysate was added to solutions (at 37°C) of 50 mM Tris, 5 mM ATP, 5 mM MgCl2, at pH 7.4, containing [^14C]pantothenate (at a final concentration of 0.01 µCi/mL, or 0.2 µM), and a pantothenamide (at a final concentration of 100 µM) or an equivalent volume of solvent. Typically, lysate prepared from 5.4–6.5×10^7 parasites was present in each mL of reaction solution. Zero phosphorylation control reactions were prepared by adding a corresponding volume of 10 mM potassium phosphate instead of parasite lysate. Following a ten minute incubation at 37°C (a period during which pantothenate phosphorylation increased linearly with time in the absence of inhibitors) 200 µL aliquots of the [^14C]pantothenate phosphorylation reactions were transferred in duplicate to microcentrifuge tubes, and immediately incubated at 95°C for 10 min to terminate phosphorylation. Terminated reaction samples were centrifuged at 15 800×g for 10 min to pellet the denatured protein, before two aliquots of each supernatant (typically 80 µL) were transferred to new microcentrifuge tubes. To one aliquot, 500 µL Somogyi reagent was added, and to the other, 500 µL water was added. The samples were processed for determination of phosphorylated [^14C]pantothenate as described previously.
compound,measurement,value
CC(C)CNC(=O)CCNC(=O)[C@H](O)C(C)(C)CO [Compound 12],Inhibition of pantothenate phosphorylation at 100 μM,95 ± 5%
